Values belong to the compound of their own block, whether it stands above or below them. Active and inactive are the calls of the source. No cut-off for these calls is given here.
What was measured:
[1] = target: T1, Type-1 angiotensin II receptor (Homo sapiens, UniProt P30556); test: Antagonist activity at type-1 angiotensin 2 receptor (unknown origin) by calcium mobilizing assay; type: functional
T1 sequence (P30556 whole entry): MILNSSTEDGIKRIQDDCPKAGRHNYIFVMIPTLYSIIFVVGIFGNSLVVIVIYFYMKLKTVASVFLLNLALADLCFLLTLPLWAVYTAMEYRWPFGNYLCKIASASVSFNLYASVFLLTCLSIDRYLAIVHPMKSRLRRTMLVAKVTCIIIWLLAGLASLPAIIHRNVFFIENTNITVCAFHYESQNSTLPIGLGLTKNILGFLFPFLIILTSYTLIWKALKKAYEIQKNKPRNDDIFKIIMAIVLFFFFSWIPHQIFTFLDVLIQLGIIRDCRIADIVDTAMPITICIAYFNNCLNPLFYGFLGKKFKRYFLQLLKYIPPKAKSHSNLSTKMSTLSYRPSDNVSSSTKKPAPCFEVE

[2] = target: T2, Peroxisome proliferator-activated receptor gamma (Homo sapiens) (UniProt P37231); test: Agonist activity at PPARgamma (unknown origin) at 1 uM relative to telmisartan
T2 sequence (whole entry): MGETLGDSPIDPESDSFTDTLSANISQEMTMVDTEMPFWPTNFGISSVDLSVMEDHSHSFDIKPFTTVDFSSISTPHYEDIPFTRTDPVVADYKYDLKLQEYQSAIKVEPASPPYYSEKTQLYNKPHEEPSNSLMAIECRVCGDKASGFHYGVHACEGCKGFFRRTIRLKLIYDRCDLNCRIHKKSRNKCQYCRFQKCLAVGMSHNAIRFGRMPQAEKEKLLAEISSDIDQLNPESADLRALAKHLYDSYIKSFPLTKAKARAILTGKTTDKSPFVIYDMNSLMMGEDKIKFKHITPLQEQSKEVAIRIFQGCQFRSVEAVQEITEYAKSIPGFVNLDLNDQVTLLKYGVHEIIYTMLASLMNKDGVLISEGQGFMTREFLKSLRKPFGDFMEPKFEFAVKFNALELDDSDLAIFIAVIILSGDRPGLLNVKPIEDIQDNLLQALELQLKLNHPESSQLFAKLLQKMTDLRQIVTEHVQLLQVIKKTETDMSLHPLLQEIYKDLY

CYP2D6 = CYP2D6 (Homo sapiens, UniProt P10635); test: Inhibition of CYP2D6 (unknown origin) assessed as remaining activity at 10 uM; type: ADME; conditions: read-out: Activity
[3] = Cmax in mouse at 60 mg/kg, po; type: ADME, organism-based; parameters: dose 60 mg/kg, route oral; conditions: in vivo
Rattus norvegicus [4] = test: Antihypertensive activity in angiotensin 2 induced hypertension rat model assessed as time required for 50% reduction in blood pressure at 30 mg/kg, po; type: functional
[5] = Half life in mouse at 60 mg/kg, po; type: ADME, organism-based; conditions: in vivo
[6] = Stability in human liver microsomes assessed as compound remaining after 30 mins; type: ADME, microsome; conditions: read-out: Stability
Rattus norvegicus [7] = test: Antihypertensive activity in angiotensin 2 induced hypertension rat model at 30 mg/kg, po measured until 8 hrs post dose; type: functional, organism-based
CYP2C19 = CYP2C19 (Homo sapiens, UniProt P33261); test: Inhibition of CYP2C19 (unknown origin) assessed as remaining activity at 10 uM; type: ADME; conditions: read-out: Activity
[8] = Tmax in rat at 60 mg/kg, po; type: ADME, organism-based; conditions: in vivo
[9] = target: T1, Type-1 angiotensin II receptor; test: Antagonist activity at type-1 angiotensin 2 receptor (unknown origin) by beta-arrestin recruitment assay; type: functional
[10] = AUClast in rat at 60 mg/kg, po; type: ADME, organism-based; parameters: dose 60 mg/kg, time 0 - last, route oral; conditions: in vivo
Mus musculus [11] = test: Toxicity in db/db mouse model assessed as suppression of weight gain at 60 mg/kg, po qd measured after 11 days; type: organism-based; conditions: in vivo, 264 h
CYP1A2 = target: T3, CYP1A2 (Homo sapiens, UniProt P05177); test: Inhibition of CYP1A2 (unknown origin) assessed as remaining activity at 10 uM; type: ADME; conditions: read-out: Activity
T3 sequence (P05177 whole entry): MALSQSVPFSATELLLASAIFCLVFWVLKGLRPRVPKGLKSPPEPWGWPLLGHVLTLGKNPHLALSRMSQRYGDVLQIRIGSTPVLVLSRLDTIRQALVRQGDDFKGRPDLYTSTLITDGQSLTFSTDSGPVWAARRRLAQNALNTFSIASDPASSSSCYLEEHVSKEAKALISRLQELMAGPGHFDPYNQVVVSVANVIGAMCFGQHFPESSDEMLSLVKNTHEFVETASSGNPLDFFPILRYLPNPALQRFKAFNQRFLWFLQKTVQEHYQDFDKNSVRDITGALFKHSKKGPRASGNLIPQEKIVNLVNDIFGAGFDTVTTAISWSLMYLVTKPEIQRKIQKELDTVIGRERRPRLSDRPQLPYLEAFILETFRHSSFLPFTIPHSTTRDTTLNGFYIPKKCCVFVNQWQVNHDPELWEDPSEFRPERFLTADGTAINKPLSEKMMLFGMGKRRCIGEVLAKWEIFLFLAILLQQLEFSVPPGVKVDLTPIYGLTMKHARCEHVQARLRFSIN

[12] = target: T2, Peroxisome proliferator-activated receptor gamma (Homo sapiens); test: Agonist activity at PPARgamma (unknown origin) at 1 uM relative to pioglitazone
Mus musculus [13] = test: Antidiabetic activity in db/db mouse model assessed as suppression of blood glucose increase at 60 mg/kg qd, po administered for 13 days; type: functional, organism-based
[14] = Cmax in rat at 60 mg/kg, po; type: ADME, organism-based; parameters: dose 60 mg/kg, route oral; conditions: in vivo
[15] = Stability in mouse liver microsomes assessed as compound remaining after 30 mins; type: ADME, microsome; conditions: read-out: Stability
[16] = Tmax in mouse at 60 mg/kg, po; type: ADME, organism-based; conditions: in vivo
CYP3A4 = CYP3A4 (Homo sapiens, UniProt P08684); test: Inhibition of CYP3A4 (unknown origin) assessed as remaining activity at 10 uM; type: ADME; conditions: read-out: Activity
[17] = Half life in rat at 60 mg/kg, po; type: ADME, organism-based; conditions: in vivo
[18] = Stability in dog liver microsomes assessed as compound remaining after 30 mins; type: ADME, Canis lupus familiaris, microsome; conditions: read-out: Stability
[19] = target: Voltage-gated inwardly rectifying potassium channel KCNH2 (Homo sapiens, UniProt Q12809); test: Inhibition of human ERG
[20] = Stability in rat liver microsomes assessed as compound remaining after 30 mins; type: ADME, microsome; conditions: read-out: Stability
[21] = target: T4, Peroxisome proliferator-activated receptor gamma (Homo sapiens, UniProt P37231); test: Agonist activity at PPARgamma (unknown origin)
T4 sequence (P37231 whole entry): T2 sequence (whole entry)

Rattus norvegicus [22] = test: Antihypertensive activity in angiotensin 2 induced hypertension rat model at 30 mg/kg, po measured after 24 hrs relative to fimasartan; type: functional
CYP2C9 = CYP2C9 (Homo sapiens, UniProt P11712); test: Inhibition of CYP2C9 (unknown origin) assessed as remaining activity at 10 uM; type: ADME; conditions: read-out: Activity
[23] = AUClast in mouse at 60 mg/kg, po; type: ADME, organism-based; parameters: dose 60 mg/kg, time 0 - last, route oral; conditions: in vivo
[24] = Ratio of AUClast in rat at 60 mg/kg, po to AUClast in mouse at 60 mg/kg, po; type: ADME, organism-based; conditions: in vivo
Mus musculus [25] = test: Antidiabetic activity in db/db mouse model assessed as suppression of blood glucose increase at 20 mg/kg qd, po administered for 13 days; type: functional, organism-based
Mus musculus [26] = test: Toxicity in db/db mouse model assessed as suppression of weight gain at 20 mg/kg, po qd measured after 11 days; type: organism-based; conditions: in vivo, 264 h
[27] = target: T5, Type-1 angiotensin II receptor (Homo sapiens) (UniProt P30556); test: Antagonist activity at type-1 angiotensin 2 receptor (unknown origin) at 20 nM by calcium mobilizing assay relative to fimasartan; type: functional
T5 sequence (whole entry): T1 sequence (P30556 whole entry)

Chain of CYP2C19 (P33261 whole entry): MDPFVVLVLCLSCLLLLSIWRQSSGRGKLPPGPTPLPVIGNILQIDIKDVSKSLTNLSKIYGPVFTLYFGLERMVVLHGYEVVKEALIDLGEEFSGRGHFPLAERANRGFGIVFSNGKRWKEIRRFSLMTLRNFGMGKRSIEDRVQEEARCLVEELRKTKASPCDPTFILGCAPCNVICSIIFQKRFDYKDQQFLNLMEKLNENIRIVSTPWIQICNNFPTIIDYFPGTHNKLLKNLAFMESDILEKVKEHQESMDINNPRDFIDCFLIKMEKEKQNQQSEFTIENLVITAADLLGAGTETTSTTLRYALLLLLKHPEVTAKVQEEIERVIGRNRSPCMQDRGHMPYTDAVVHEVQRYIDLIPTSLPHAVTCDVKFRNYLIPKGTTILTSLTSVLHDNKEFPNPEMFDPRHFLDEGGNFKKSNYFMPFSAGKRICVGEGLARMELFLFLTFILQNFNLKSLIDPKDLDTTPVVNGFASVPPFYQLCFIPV
Chain of CYP2C9 (P11712 whole entry): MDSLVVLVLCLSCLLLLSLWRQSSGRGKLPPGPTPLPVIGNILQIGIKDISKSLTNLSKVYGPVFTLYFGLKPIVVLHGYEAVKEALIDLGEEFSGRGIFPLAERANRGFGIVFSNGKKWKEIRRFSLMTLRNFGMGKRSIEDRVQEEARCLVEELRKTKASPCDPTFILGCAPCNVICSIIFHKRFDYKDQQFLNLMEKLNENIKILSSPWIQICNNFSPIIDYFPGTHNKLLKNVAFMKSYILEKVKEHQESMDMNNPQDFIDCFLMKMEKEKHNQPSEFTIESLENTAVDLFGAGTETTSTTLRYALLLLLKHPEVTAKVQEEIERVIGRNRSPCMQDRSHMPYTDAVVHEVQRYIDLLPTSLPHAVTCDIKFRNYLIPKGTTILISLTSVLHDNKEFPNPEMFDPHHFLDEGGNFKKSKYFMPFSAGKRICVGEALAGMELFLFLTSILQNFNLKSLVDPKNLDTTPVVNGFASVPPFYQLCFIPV
Chain of Voltage-gated inwardly rectifying potassium channel KCNH2 (Q12809 whole entry): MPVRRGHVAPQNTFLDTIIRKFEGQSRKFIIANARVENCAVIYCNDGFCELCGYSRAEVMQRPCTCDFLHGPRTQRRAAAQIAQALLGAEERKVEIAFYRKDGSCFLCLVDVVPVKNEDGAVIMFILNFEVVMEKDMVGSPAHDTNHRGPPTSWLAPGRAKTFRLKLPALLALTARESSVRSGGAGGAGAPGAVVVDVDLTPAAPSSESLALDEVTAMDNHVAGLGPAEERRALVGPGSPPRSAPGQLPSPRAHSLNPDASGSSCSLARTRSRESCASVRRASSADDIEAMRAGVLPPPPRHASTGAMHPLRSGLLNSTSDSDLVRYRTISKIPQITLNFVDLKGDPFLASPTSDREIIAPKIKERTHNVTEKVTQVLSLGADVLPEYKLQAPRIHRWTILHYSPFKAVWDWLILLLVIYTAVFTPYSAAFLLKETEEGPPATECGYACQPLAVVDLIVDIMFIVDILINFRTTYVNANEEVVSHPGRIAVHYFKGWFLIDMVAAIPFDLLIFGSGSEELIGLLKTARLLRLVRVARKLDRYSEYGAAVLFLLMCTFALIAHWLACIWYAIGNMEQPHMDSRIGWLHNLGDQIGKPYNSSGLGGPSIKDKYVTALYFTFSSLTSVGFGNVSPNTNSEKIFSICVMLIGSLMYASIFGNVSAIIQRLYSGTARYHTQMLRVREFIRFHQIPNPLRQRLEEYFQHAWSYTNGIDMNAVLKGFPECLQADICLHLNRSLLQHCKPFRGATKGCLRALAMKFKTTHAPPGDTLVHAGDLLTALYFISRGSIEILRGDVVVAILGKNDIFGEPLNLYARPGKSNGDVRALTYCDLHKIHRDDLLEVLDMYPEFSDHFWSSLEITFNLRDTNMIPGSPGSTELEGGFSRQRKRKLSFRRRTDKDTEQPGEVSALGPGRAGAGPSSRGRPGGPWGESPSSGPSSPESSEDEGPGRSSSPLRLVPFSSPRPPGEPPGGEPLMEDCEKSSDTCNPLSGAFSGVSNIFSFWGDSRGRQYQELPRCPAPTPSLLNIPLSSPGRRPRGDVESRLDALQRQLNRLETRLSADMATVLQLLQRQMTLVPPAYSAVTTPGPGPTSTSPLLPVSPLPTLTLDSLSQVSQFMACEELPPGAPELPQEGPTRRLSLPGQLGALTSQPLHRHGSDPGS
Chain of CYP2D6 (P10635 whole entry): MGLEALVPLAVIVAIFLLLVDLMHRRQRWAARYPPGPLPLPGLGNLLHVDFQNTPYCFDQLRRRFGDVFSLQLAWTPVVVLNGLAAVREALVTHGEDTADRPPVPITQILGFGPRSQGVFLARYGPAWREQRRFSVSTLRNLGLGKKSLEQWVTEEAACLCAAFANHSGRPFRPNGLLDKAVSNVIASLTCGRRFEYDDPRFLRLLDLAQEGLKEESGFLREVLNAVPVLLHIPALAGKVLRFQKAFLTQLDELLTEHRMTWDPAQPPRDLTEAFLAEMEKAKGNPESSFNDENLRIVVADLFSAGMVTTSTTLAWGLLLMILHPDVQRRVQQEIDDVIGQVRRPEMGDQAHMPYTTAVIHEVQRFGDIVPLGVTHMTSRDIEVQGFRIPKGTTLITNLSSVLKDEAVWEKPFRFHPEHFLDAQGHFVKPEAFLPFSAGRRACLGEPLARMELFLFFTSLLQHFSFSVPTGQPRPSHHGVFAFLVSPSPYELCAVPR
Chain of CYP3A4 (P08684 whole entry): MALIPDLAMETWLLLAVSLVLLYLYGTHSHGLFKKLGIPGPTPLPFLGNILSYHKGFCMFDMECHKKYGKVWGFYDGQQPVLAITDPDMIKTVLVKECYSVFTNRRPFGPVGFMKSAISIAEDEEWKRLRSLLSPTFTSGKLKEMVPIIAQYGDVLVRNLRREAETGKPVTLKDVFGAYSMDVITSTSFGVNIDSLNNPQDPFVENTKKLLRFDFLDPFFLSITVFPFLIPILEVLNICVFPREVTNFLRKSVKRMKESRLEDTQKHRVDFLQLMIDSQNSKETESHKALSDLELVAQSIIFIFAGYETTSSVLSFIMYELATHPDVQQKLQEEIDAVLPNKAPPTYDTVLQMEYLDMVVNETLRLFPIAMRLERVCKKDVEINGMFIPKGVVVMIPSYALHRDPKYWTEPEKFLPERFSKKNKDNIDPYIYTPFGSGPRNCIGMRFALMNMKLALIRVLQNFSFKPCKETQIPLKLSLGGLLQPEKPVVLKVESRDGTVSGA

Structure (SMILES): CCCCc1nc(C(C)C)c(CC(=S)N2CCCC2)c(=O)n1Cc1ccc(-c2ccccc2-c2noc(=O)[nH]2)cc1
activity at 10 µM (CYP2D6): 99% | Cmax [3]: 1860 ng/mL | Time (Rattus norvegicus [4]): 16 h | half-life [5]: 3.67 h | remaining at 0.5 h [6]: 13% | Activity (Rattus norvegicus [7]): Active | activity at 10 µM (CYP2C19): 84% | Tmax [8]: 1.17 h | IC50 [9]: 10.5 nM | AUC(0-t) [10]: 13400 ng·h/mL | Activity (Mus musculus [11]): Non-Toxic | activity at 10 µM (CYP1A2): 97% | Activity [12]: 66% | Activity (Mus musculus [13]): Active | Cmax [14]: 2570 ng/mL | remaining at 0.5 h [15]: 11% | Tmax [16]: 0.5 h | activity at 10 µM (CYP3A4): 62% | half-life [17]: 4.73 h | IC50 [1]: 2.2 nM | remaining at 0.5 h [18]: 62% | IC50 [19]: 7000 nM | remaining at 0.5 h [20]: 24% | Activity [2]: 156% | EC50 [21]: 3100 nM | Activity (Rattus norvegicus [22]): 50% | activity at 10 µM (CYP2C9): 36% | AUC(0-t) [23]: 2570 ng·h/mL | Ratio AUC [24]: 4

Structure (SMILES): CCc1ccc(CCOc2ccc(CC3SC(=O)NC3=O)cc2)nc1 (stereo unspecified) [PIOGLITAZONE]
Activity (Mus musculus [25]): Active | Activity (Mus musculus [26]): Non-Toxic

Structure (SMILES): CCCCc1nc(C)c(CC(=S)N(C)C)c(=O)n1Cc1ccc(-c2ccccc2S(N)(=O)=O)cc1
inhibition [27]: 11%

Structure (SMILES): CCCCc1nc(C)c(CC(=S)N2CC[C@@H]3CCCC[C@H]32)c(=O)n1Cc1ccc(-c2ccccc2-c2noc(=O)[nH]2)cc1
IC50 [1]: 70 nM | Activity [2]: 121%

The remaining lines, values ahead:

IC50 [1]: 1.8 nM | Activity [2]: 100%
Structure (SMILES): CCCCc1nc(C)c(CC(=S)N2[C@H](C)CC[C@H]2C)c(=O)n1Cc1ccc(-c2ccccc2-c2noc(=O)[nH]2)cc1

IC50 [1]: 4.7 nM | Activity [2]: 100%
Structure (SMILES): CCCc1nc(C)c(CC(=S)N(C)C)c(=O)n1Cc1ccc(-c2ccccc2-c2noc(=O)[nH]2)cc1

inhibition [27]: 107% | Activity [2]: 106%
Structure (SMILES): CCCCc1nc(C)c(CC(=S)N(C)C(C)C)c(=O)n1Cc1ccc(-c2ccccc2-c2noc(=O)[nH]2)cc1

inhibition [27]: 0% | Activity [2]: 70%
Structure (SMILES): Cc1nc(CC(C)C)n(Cc2ccc(-c3ccccc3-c3noc(=O)[nH]3)cc2)c(=O)c1CC(=S)N(C)C

IC50 [1]: 2 nM | Activity [2]: 61%
Structure (SMILES): CCCCc1nc(C)c(CC(=S)N(CC)CC)c(=O)n1Cc1ccc(-c2ccccc2-c2noc(=O)[nH]2)cc1

IC50 [1]: 1.2 nM | Activity [2]: 107%
Structure (SMILES): CCCCc1nc(C)c(CC(=S)N2CCCC2C)c(=O)n1Cc1ccc(-c2ccccc2-c2noc(=O)[nH]2)cc1 (stereo unspecified)

Source: ChEMBL document CHEMBL4265900, “Discovery of the bifunctional modulator of angiotensin II type 1 receptor (AT1R) and PPARγ derived from the AT1R antagonist, Fimasartan” (Bioorg Med Chem Lett, 2018)
